Experimental data from US20070202515A1, “Promac signature application” (PATHOLOGICA, LLC., priority 2005, published 2007).

Columns and labels:
[1] = test system: cancer; conditions: response not universal; cited from earlier work
[2] = ALS patients; cited from earlier work
[3] = test system: subcutaneous T cell lymphoma; experiment: Phase I trial of CG-47: clinical response of lymphoma; format: in vivo, human
Source text: As part of the clinical development of CG-47, Pathologica performed analysis on blood samples from a subset of patients currently enrolled in a Phase I trial of the safety of the investigational polyamine CG-47. The trial recruited patients who have failed conventional therapy for various lymphomas. The patients received increasing amounts of CG47 for 5 days every three weeks by infusion. The trial was a dose escalation trial in which the first 3 patients received the lowest dose, the next three a higher dose etc. One patient, a person with subcutaneous T cell lymphoma, received 4 doses of 50 mg/m^2 of CG-47 over a 12 week period. […] Relapse of the lymphoma then occurred and a final sample was obtained. Levels of CD14-16++macrophages and the LC5-CI values obtained from the baseline and various subsequent samples are presented in FIG. 10. At presentation the patient had elevated CD14-16% s (˜50%) and a strongly positive LC5-CI score (6.2). After the first cycle of CG-47 the patient entered a clinical remission of their cancer that lasted for the […] of CG-47. During their clinical remission both the CD14-16++ levels and the LC5-CI scores normalized. After the 4th cycle of CG-47 the patient experienced a relapse in their cancer and in the post relapse samples CD14-16++ levels were again elevated (50%) and their LC5-CI value had reverted to a positive score (12.9). […]

[4] = test system: CD14-16++macrophages; experiment: Levels of CD14-16++ macrophages in patient blood by flow cytometry; format: in vivo, human; conditions: same patient
Source text: FIG. 10: LC5-CI and Signature values in cutaneous T-cell lymphoma patient—the percent of CD14 cells also staining with antibodies to CD16 by flow cytometry (filled triangles) is plotted (left y axis) along with the LC5-CI (open triangles) determined for the same samples (right y axis). The samples include the baseline sample obtained prior to the administration of the first cycle of CG-47 (baseline, x axis), the samples obtained prior to the patient receiving the 2nd, 3rd, and 4th cycle of CG-47 (cy2, cy3, and cy4, respectively) and the final sample obtained when the patient experienced a relapse (ReLps).
As part of the clinical development of CG-47, Pathologica performed analysis on blood samples from a subset of patients currently enrolled in a Phase I trial of the safety of the investigational polyamine CG-47. The trial recruited patients who have failed conventional therapy for various lymphomas. The patients received increasing amounts of CG47 for 5 days every three weeks by infusion. The trial was a dose escalation trial in which the first 3 patients received the lowest dose, the next three a higher dose etc. One patient, a person with subcutaneous T cell lymphoma, received 4 doses of 50 mg/m^2 of CG-47 over a 12 week period. […] Relapse of the lymphoma then occurred and a final sample was obtained. […]

[5] = test system: G1P3, GPR43, IFIT2, ORM1, TNFSF10; experiment: LC5-CI quantitative RT-PCR classification index on PBMCs; format: in vivo, human; conditions: same patient
Source text: Aliquots of the RNA preparations were then RT-PCR amplified using quantitative real time methods employing a Light-Cycler^36. The signals obtained were normalized against the signal obtained with primers for β-actin according to the formula Ctactin−Ctgene=NSig where Ct=the threshold cycle for the indicated gene and NSig=the normalized signal.
Therefore, we constructed a “weighted voting” scheme using the methods described by Golub and co-workers^37 for 10 of the most promising primer sets. ALS and control patients were divided into training and test sets and the actin normalized signal for each sample with each primer set was determined as described above. Then the voting weights (modified Rs) were calculated using the test samples according to the formula Mod R=(Mean ALS−Mean CON)/(StDev ALS+StDev CON) calculated using 13 ALS samples & 11 controls.
Next the inflection point or the mid point between the ALS and control samples is calculated according to MID=(MeanALS+MeanCON)/2
Then the signal for the individual primer (ICV) is calculated according to ICV=Mod R(Mean NSig−Mid)
The predictive power of the various primers was then evaluated using the test set of samples. […]

For `C/C(=N\N=C(N)N)c1cc(NC(=O)CCCCCCCCC(=O)Nc2cc(/C(C)=N/N=C(N)N)cc(/C(C)=N/N=C(N)N)c2)cc(/C(C)=N/N=C(N)N)c1.Cl.Cl.Cl.Cl` [CNI-1493], the “efficacy against cancer in clinical trials” value [1] is given as “some level of efficacy against cancer”.
In the case of `Nc1nc2ccc(OC(F)(F)F)cc2s1` [Riluzole], the “effect on disease progression” value [2] is listed as “only modest slowing of disease progression”.
For `CC(C=NNC(=N)N)=NNC(=N)N.Cl.Cl.O` [MGBG, Methylglyoxal bis(guanylhydrazone) dihydrochloride hydrate], the “efficacy against cancer in clinical trials” value [1] is listed as “some level of efficacy against cancer”.
For `CCNCCCNC/C=C\CNCCCNCC.Cl.Cl.Cl.Cl` [CG-47], the duration of remission ([3]; began after administration of the first dose, 50 mg/m^2, same patient) was “approximately 10 weeks”, the “clinical response of lymphoma” value ([3]; one patient, 4 doses of 50 mg/m^2 over a 12 week period by infusion) was “very significant remission” and the “CD14-16++ levels in post relapse samples” value ([4]; relapse after the 4th cycle) was 50%. For the same compound, the “CD14-16++ levels during clinical remission” value ([4]; at presentation elevated (~50%)) was “normalized”, the “LC5-CI value in post relapse samples” value ([5]; relapse after the 4th cycle) was 12.9 and the “LC5-CI scores during clinical remission” value ([5]; at presentation strongly positive (6.2)) was “normalized”.
